Measurements reported in patent US8889874B2, “Imidazolone-chalcone derivatives as potential anticancer agent and process for the preparation thereof” (Council of Scientific and Industrial Research, priority 2010, dated 2014).

Assays:
Assay in all cases: NCI anticancer screen, SRB assay, 48 h
Type in all cases: cell-based, human
MALME-3M (melanoma) = settings: MALME-3M
Procedure: (§1) Some of biological activity studies were carried out at the National Cancer Institute (NCI), Maryland, USA.
(§2) The compounds were evaluated for anticancer activity against fifty three human cancer cells derived from nine cancer types (leukemia cell line, non-small-cell lung cell line, colon cell line, CNS cell line, melanoma cell line, ovarian cell line, prostate cell line, and breast cancer cell line) as shown in Table 1. For each compound, dose response curves for each cell line were measured at a minimum of five concentrations at 10 fold dilutions. A protocol of 48 h continuous drug exposure was used and a sulforhodamine B (SRB) protein assay was used to estimate cell viability or growth.

OVCAR-8 (ovarian) = test system: OVCAR-8 (ovarian)
Procedure: as §1, §2

SNB-75 (CNS) = test system: SNB-75 (CNS)
Procedure: as §1, §2

HCT-116 (colon) = test system: HCT-116 (colon)
Procedure: as §1, §2

SK-OV-3 (ovarian) = test system: SK-OV-3 (ovarian)
Procedure: as §1, §2

[1] = test system: NCI-H322M (non-small cell lung)
Procedure: as §1, §2

[2] = test system: A549/ATCC (non-small cell lung)
Procedure: as §1, §2

KM12 (colon) = test system: KM12 (colon)
Procedure: as §1, §2

OVCAR-4 (ovarian) = test system: OVCAR-4 (ovarian)
Procedure: as §1, §2

HT29 (colon) = test system: HT29 (colon)
Procedure: as §1, §2

LOX IMVI (melanoma) = test system: LOX IMVI (melanoma)
Procedure: as §1, §2

SF-295 (CNS) = test system: SF-295 (CNS)
Procedure: as §1, §2

SK-MEL-5 (melanoma) = test system: SK-MEL-5 (melanoma)
Procedure: as §1, §2

[3] = test system: EKVX (non-small cell lung)
Procedure: as §1, §2

OVCAR-3 (ovarian) = test system: OVCAR-3 (ovarian)
Procedure: as §1, §2

CAKI-1 (renal) = test system: CAKI-1 (renal)
Procedure: as §1, §2

[4] = test system: K-562 (leukemia cell line)
Procedure: as §1, §2

MDA-MB-435 (melanoma) = test system: MDA-MB-435 (melanoma)
Procedure: as §1, §2

UACC-257 (melanoma) = test system: UACC-257 (melanoma)
Procedure: as §1, §2

TK-10 (renal) = test system: TK-10 (renal)
Procedure: as §1, §2

A498 (renal) = test system: A498 (renal)
Procedure: as §1, §2

786-0 (renal) = test system: 786-0 (renal)
Procedure: as §1, §2

HCT-15 (colon) = test system: HCT-15 (colon)
Procedure: as §1, §2

SF-268 (CNS) = test system: SF-268 (CNS)
Procedure: as §1, §2

SW-620 (colon) = test system: SW-620 (colon)
Procedure: as §1, §2

HS 578T (breast) = test system: HS 578T (breast)
Procedure: as §1, §2

BT-549 (breast) = test system: BT-549 (breast)
Procedure: as §1, §2

[5] = test system: NCI-H23 (non-small cell lung)
Procedure: as §1, §2

UACC-62 (melanoma) = test system: UACC-62 (melanoma)
Procedure: as §1, §2

TD-47D (breast) = test system: TD-47D (breast)
Procedure: as §1, §2

MCF7 (breast) = test system: MCF7 (breast)
Procedure: as §1, §2

MDA-MB-231/ATCC (breast) = test system: MDA-MB-231/ATCC (breast)
Procedure: as §1, §2

[6] = test system: RPMI-8226 (leukemia cell line)
Procedure: as §1, §2

[7] = test system: NCI-H522 (non-small cell lung)
Procedure: as §1, §2

[8] = 48 h exposure, SRB, read-out: GI50

Question: With `COc1cc(/C=C/C(=O)c2cccc(-n3cc(-c4ccc(Cl)cc4)[nH]c3=O)c2)cc(OC)c1OC` [5f, 4-(4-chlorophenyl)-1-3-[(E)-3-(3,4,5-trimethoxyphenyl)-2-propenoyl]phenyl-2,3-dihydro-1H-2-imidazolone] as the compound, how does the “pGI50 (-log of molar concentration causing 50% inhibition of net cell growth)” value (MALME-3M (melanoma)) read?
Answer: Its value is 4.74.

Question: What about the GI50 (MALME-3M (melanoma); [8]) of the same compound?
Answer: Its GI50 is 18.1 µM.

Question: And the “pGI50 (-log of molar concentration causing 50% inhibition of net cell growth)” value (OVCAR-8 (ovarian))?
Answer: Its value is 5.41.

Question: And the GI50 (OVCAR-8 (ovarian); [8])?
Answer: Its GI50 is 3.85 µM.

Question: What about the “pGI50 (-log of molar concentration causing 50% inhibition of net cell growth)” value (SNB-75 (CNS)) of the same compound?
Answer: Its value is 4.69.

Question: What about the “pGI50 (-log of molar concentration causing 50% inhibition of net cell growth)” value (HCT-116 (colon)) of the same compound?
Answer: Its value is 5.86.

Question: And the GI50 (HCT-116 (colon); [8])?
Answer: The GI50 was 1.39 µM.

Question: What about the “pGI50 (-log of molar concentration causing 50% inhibition of net cell growth)” value (SK-OV-3 (ovarian)) of the same compound?
Answer: The value was 4.50.

Question: What about the GI50 (SK-OV-3 (ovarian); [8]) of the same compound?
Answer: The GI50 was 31.4 µM.

Question: What about the “pGI50 (-log of molar concentration causing 50% inhibition of net cell growth)” value [1] of the same compound?
Answer: Its value is 4.89.

Question: And the GI50 [1, 8]?
Answer: The GI50 was 12.9 µM.

Question: And the “pGI50 (-log of molar concentration causing 50% inhibition of net cell growth)” value [2]?
Answer: Its value is 4.07.

Question: What about the GI50 [2, 8] of the same compound?
Answer: Its GI50 is 85.2 µM.

Question: What about the “pGI50 (-log of molar concentration causing 50% inhibition of net cell growth)” value (KM12 (colon)) of the same compound?
Answer: Its value is 5.26.

Question: What about the GI50 (KM12 (colon); [8]) of the same compound?
Answer: Its GI50 is 5.45 µM.

Question: And the “pGI50 (-log of molar concentration causing 50% inhibition of net cell growth)” value (OVCAR-4 (ovarian))?
Answer: The value was 4.94.

Question: And the GI50 (OVCAR-4 (ovarian); [8])?
Answer: Its GI50 is 11.4 µM.

Question: And the “pGI50 (-log of molar concentration causing 50% inhibition of net cell growth)” value (HT29 (colon))?
Answer: Its value is 5.70.

Question: And the GI50 (HT29 (colon); [8])?
Answer: Its GI50 is 2 µM.

Question: And the “pGI50 (-log of molar concentration causing 50% inhibition of net cell growth)” value (LOX IMVI (melanoma))?
Answer: Its value is 5.76.

Question: What about the GI50 (LOX IMVI (melanoma); [8]) of the same compound?
Answer: Its GI50 is 1.72 µM.

Question: What about the “pGI50 (-log of molar concentration causing 50% inhibition of net cell growth)” value (SF-295 (CNS)) of the same compound?
Answer: The value was 4.61.

Question: And the GI50 (SF-295 (CNS); [8])?
Answer: Its GI50 is 24.3 µM.

Question: What about the “pGI50 (-log of molar concentration causing 50% inhibition of net cell growth)” value (SK-MEL-5 (melanoma)) of the same compound?
Answer: The value was 5.06.

Question: And the GI50 (SK-MEL-5 (melanoma); [8])?
Answer: Its GI50 is 8.7 µM.

Question: What about the “pGI50 (-log of molar concentration causing 50% inhibition of net cell growth)” value [3] of the same compound?
Answer: Its value is 4.62.

Question: What about the “pGI50 (-log of molar concentration causing 50% inhibition of net cell growth)” value (OVCAR-3 (ovarian)) of the same compound?
Answer: Its value is 5.61.

Question: And the GI50 (OVCAR-3 (ovarian); [8])?
Answer: Its GI50 is 2.4 µM.

Question: And the “pGI50 (-log of molar concentration causing 50% inhibition of net cell growth)” value (CAKI-1 (renal))?
Answer: The value was 4.81.

Question: And the “pGI50 (-log of molar concentration causing 50% inhibition of net cell growth)” value [4]?
Answer: Its value is 5.43.

Question: And the GI50 [4, 8]?
Answer: The GI50 was 3.69 µM.

Question: What about the “pGI50 (-log of molar concentration causing 50% inhibition of net cell growth)” value (MDA-MB-435 (melanoma)) of the same compound?
Answer: Its value is 5.44.

Question: What about the GI50 (MDA-MB-435 (melanoma); [8]) of the same compound?
Answer: The GI50 was 3.63 µM.

Question: What about the “pGI50 (-log of molar concentration causing 50% inhibition of net cell growth)” value (UACC-257 (melanoma)) of the same compound?
Answer: The value was 4.76.

Question: What about the GI50 (UACC-257 (melanoma); [8]) of the same compound?
Answer: The GI50 was 17.4 µM.

Question: What about the “pGI50 (-log of molar concentration causing 50% inhibition of net cell growth)” value (TK-10 (renal)) of the same compound?
Answer: Its value is 5.19.

Question: And the GI50 (TK-10 (renal); [8])?
Answer: The GI50 was 6.46 µM.

Question: What about the “pGI50 (-log of molar concentration causing 50% inhibition of net cell growth)” value (A498 (renal)) of the same compound?
Answer: Its value is 4.52.

Question: And the GI50 (A498 (renal); [8])?
Answer: The GI50 was 30.2 µM.

Question: And the “pGI50 (-log of molar concentration causing 50% inhibition of net cell growth)” value (786-0 (renal))?
Answer: The value was 5.67.

Question: And the GI50 (786-0 (renal); [8])?
Answer: Its GI50 is 2.14 µM.

Question: And the “pGI50 (-log of molar concentration causing 50% inhibition of net cell growth)” value (HCT-15 (colon))?
Answer: The value was 5.41.

Question: What about the GI50 (HCT-15 (colon); [8]) of the same compound?
Answer: Its GI50 is 3.85 µM.

Question: What about the “pGI50 (-log of molar concentration causing 50% inhibition of net cell growth)” value (SF-268 (CNS)) of the same compound?
Answer: Its value is 5.29.

Question: What about the GI50 (SF-268 (CNS); [8]) of the same compound?
Answer: The GI50 was 5.07 µM.

Question: What about the “pGI50 (-log of molar concentration causing 50% inhibition of net cell growth)” value (SW-620 (colon)) of the same compound?
Answer: Its value is 5.76.

Question: And the GI50 (SW-620 (colon); [8])?
Answer: The GI50 was 1.75 µM.

Question: What about the “pGI50 (-log of molar concentration causing 50% inhibition of net cell growth)” value (HS 578T (breast)) of the same compound?
Answer: Its value is 5.22.

Question: And the GI50 (HS 578T (breast); [8])?
Answer: The GI50 was 5.96 µM.

Question: And the “pGI50 (-log of molar concentration causing 50% inhibition of net cell growth)” value (BT-549 (breast))?
Answer: The value was 4.91.

Question: What about the GI50 (BT-549 (breast); [8]) of the same compound?
Answer: The GI50 was 12.3 µM.

Question: What about the “pGI50 (-log of molar concentration causing 50% inhibition of net cell growth)” value [5] of the same compound?
Answer: Its value is 5.45.

Question: What about the GI50 [5, 8] of the same compound?
Answer: The GI50 was 3.56 µM.

Question: What about the “pGI50 (-log of molar concentration causing 50% inhibition of net cell growth)” value (UACC-62 (melanoma)) of the same compound?
Answer: Its value is 5.05.

Question: And the GI50 (UACC-62 (melanoma); [8])?
Answer: The GI50 was 8.88 µM.

Question: And the “pGI50 (-log of molar concentration causing 50% inhibition of net cell growth)” value (TD-47D (breast))?
Answer: Its value is 5.18.

Question: What about the GI50 (TD-47D (breast); [8]) of the same compound?
Answer: The GI50 was 6.65 µM.

Question: And the “pGI50 (-log of molar concentration causing 50% inhibition of net cell growth)” value (MCF7 (breast))?
Answer: Its value is 5.76.

Question: And the GI50 (MCF7 (breast); [8])?
Answer: Its GI50 is 1.74 µM.

Question: What about the “pGI50 (-log of molar concentration causing 50% inhibition of net cell growth)” value (MDA-MB-231/ATCC (breast)) of the same compound?
Answer: The value was 4.86.

Question: What about the GI50 (MDA-MB-231/ATCC (breast); [8]) of the same compound?
Answer: Its GI50 is 13.8 µM.

Question: What about the “pGI50 (-log of molar concentration causing 50% inhibition of net cell growth)” value [6] of the same compound?
Answer: The value was 5.41.

Question: And the GI50 [6, 8]?
Answer: Its GI50 is 3.92 µM.

Question: What about the “pGI50 (-log of molar concentration causing 50% inhibition of net cell growth)” value [7] of the same compound?
Answer: Its value is 5.39.

Question: What about the GI50 [7, 8] of the same compound?
Answer: Its GI50 is 4.1 µM.
